US20200085918A1, “COMPOSITIONS AND METHODS FOR TREATMENT OF UREMIC CARDIOMYOPATHY” (priority 2016, published 2020)

Key:
HO-1 [1] = assay: HO-1 expression in primary cardiac fibroblasts; format: cell-based, mouse; conditions: 24 h
Method: (§1) Western Blotting Analysis: Cardiac (left ventricle) tissue samples and cardiac fibroblast homogenates were prepared and analyzed as was previously described for collagen-1 and other proteins. Assessment of protein carbonylation and activation of c-Src and ERK1/2 was performed as was described previously. Multiple exposures were analyzed to assure that the signals were within the linear range of the film. The signal density was determined using NIH ImageJ 1.48v software. Polyclonal antibody against type I collagen was from Southern Biotech (Birmingham, Ala.). Polyclonal anti-Src [pY418] phosphospecific antibody was from Invitrogen (Camarillo, Calif.). Monoclonal antibody against total c-Src was from Santa Cruz (Santa Cruz, Calif.). 2,4-dinitrophenylhydrazine (DNPH) and antibody against 2,4-dinitrophenyl (DNP) hydrazone derivatives were from Sigma-Aldrich.
(§2) Experimental design for in vitro experiment: C57BL/6 mouse primary cardiac fibroblast cells (purchased from Cell Biologics, Inc., Chicago, Ill.) were resuspended in complete fibroblast medium with supplements and 10% FBS (Cell Biologics, Inc.). The cultures were maintained at 37° C. in a 5% CO2 incubator and the medium was changed after 48 h and every 2-3 days thereafter. Cardiac fibroblast cells (passage 3-4) were grown until over confluent and were serum-starved (with 1% FBS) overnight before being used for the experiments. […]

protein carbonylation [2] = assay: Protein carbonylation in primary cardiac fibroblasts; format: cell-based, mouse
Method: as §1, §2

PNx mice [3] = assay: Heart weight/body weight ratio, CoPP and pNaKtide study; format: in vivo, mouse; conditions: PNx + CoPP 5 mg/kg BW ip
Method: Nephrectomy Mouse Model: The PNx model included two-step surgeries. […] Step-two surgery was operated 7 days later, in which the right kidney was removed. For sham surgery, the two-step surgeries were performed in the same way as in the PNx group, without ligation of left kidney and removal of right kidney.
CoPP injections were given 5 days prior to, and on the day of, surgery, as well as every 5 days thereafter until sacrificing.

c-Src [4] = assay: c-Src activation (pY418 c-Src/total c-Src) in primary cardiac fibroblasts; format: cell-based, mouse
Method: as §1, §2

PNx mice [5] = assay: Renal function: plasma cystatin C, creatinine and BUN, CoPP and pNaKtide study; format: in vivo, mouse; conditions: PNx + CoPP 5 mg/kg BW ip
Method: Measurement of plasma cystatin C, creatinine and blood urea nitrogen (BUN): Mouse cystatin C ELISA kit and mouse creatinine kit were obtained from Crystal Chem. Inc. (Downers Grove, Ill.). Mouse BUN ELISA kit was obtained from MyBioSource Inc (San Diego, Calif.). The measurements were performed following manufacturers' instructions. Each sample was tested in duplicate.

TBARS = assay: Thiobarbituric acid reactive substances (TBARS) in treated PNx mice; format: in vivo, mouse; conditions: PNx + CoPP 5 mg/kg BW ip
protein carbonylation [6] = assay: Protein carbonylation in left ventricle homogenates, CoPP and pNaKtide study; format: in vivo, mouse; conditions: PNx + CoPP 5 mg/kg BW ip; p<0.01 vs PNx
Method: as §1

ERK1/2 [7] = assay: ERK1/2 activation (phosphor-ERK/total ERK) in primary cardiac fibroblasts; format: cell-based, mouse
Method: as §1, §2

[8] = system: PNx-induced cardiomyopathy, C57BL/6 mice; assay: Transthoracic echocardiography, PNx mice (effects of CoPP and pNaKtide on PNx-induced cardiomyopathy); format: in vivo, mouse; conditions: PNX + CoPP (5 mg/kg BW ip), n = 15, mean ± SE
Method: Experimental designs: Male C57BL/6 10-12 weeks were purchased from Hill Top Laboratories and housed in pathogen free animal facility in designated rooms equipped with cages that supply purified air under a 12 hour light/dark cycle. Food and water were supplied ad libitum. Animal protocol was approved by the Marshall University Institutional Animal Care and Use Committee. The number of animals in each group was determined by Power analysis using the following assumptions derived from a previous study with mice, with variance of 0.2 within the groups, power of 0.80, and alpha error of 0.05. Effects of CoPP and […] on PNx-induced cardiomyopathy: Cobalt protoporphyrin (CoPP, Frontier Scientific, Logan, Utah) was used to induct HO-1 expression and […] was used to block the Na/K-ATPase signaling function. […] Transthoracic Echocardiography: Transthoracic echocardiography was performed 24 hours before sacrifice. […] Mice in supine position were placed on a heating pad to keep the body temperature at 37° C. Body core temperature and ECG for physiological monitoring were obtained and manipulated by using a Visualsonics Mouse Handling Table (11436) and a rectal thermometer. Echocardiographic images were captured using MS400: 18-38 MHz operating frequency MicroScan transducer attached to a Vevo 1100 Imaging System (FUJIFILM VisualSonics Inc.). Warmed echo gel was placed between the probe and shaved chest. B-mode and M-mode images of the heart were obtained from parasternal long axis and short axis. PW Doppler and Color Doppler were obtained from basal short axis. The average values were calculated from at least four consecutive cardiac cycles. Left-ventricular end-diastolic area (EDA), end-systolic area (ESA), as well as main pulmonary artery diameter was measured from B-mode. End-diastolic diameters (EDD), end-systolic diameters (ESD), as well as anterior and posterior wall thickness (AWT & PWT) were captured from M-mode. Isovolumic contraction and relaxation time (IVCT & IVRT), ejection time (ET), as well as pulmonary velocity time integral (VTI) were obtained from PW and color Doppler.

collagen-1 [9] = assay: Collagen-1 expression in left ventricle homogenates (western blot), CoPP and pNaKtide study; format: in vivo, mouse; conditions: LV homogenates; PNx + CoPP 5 mg/kg BW ip; p<0.01 vs PNx
Method: as §1

collagen-1 [10] = format: cell-based, mouse
Method: as §1
Experimental design for in vitro experiment: C57BL/6 mouse primary cardiac fibroblast cells (purchased from Cell Biologics, Inc., Chicago, Ill.) were resuspended in complete fibroblast medium with supplements and 10% FBS (Cell Biologics, Inc.). The cultures were maintained at 37° C. in a 5% CO2 incubator and the medium was changed after 48 h and every 2-3 days thereafter. Cardiac fibroblast cells (passage 3-4) were grown until over confluent and were serum-starved (with 1% FBS) overnight before being used for the experiments. Cells were treated with or without TCB (100 nM) to determine procollagen-1 and HO-1 expression (24 h treatment), and c-Src activation and protein carbonylation (1 h treatment).

[11] = system: PNx-induced cardiac fibrosis; assay: Cardiac fibrosis by Sirius Red/Fast Green staining, CoPP and pNaKtide study; format: in vivo, mouse; conditions: PNx + CoPP 5 mg/kg BW ip; p<0.01 vs. PNx
Method: Effects of CoPP and […] on PNx-induced cardiomyopathy: Cobalt protoporphyrin (CoPP, Frontier Scientific, Logan, Utah) was used to induct HO-1 expression and […] was used to block the Na/K-ATPase signaling function. […] Sirius Red/Fast Green staining: Histology staining for collagen fiber was performed on tissues harvested with Sirius Red/Fast Green Collagen Staining solutions (Sigma-Aldrich) according to the manufacturer's protocol. Tissues preparation, fixation, and data analysis were conducted as previously described.

ERK1/2 [12] = assay: ERK1/2 activation in left ventricle homogenates, CoPP and pNaKtide study; format: in vivo, mouse; conditions: PNx + CoPP 5 mg/kg BW ip, 4 weeks after PNx; p<0.01 vs PNx
Method: as §1

HO-1 [13] = assay: HO-1 expression in left ventricle homogenates (western blot), CoPP and pNaKtide study; format: in vivo, mouse; conditions: CoPP 5 mg/kg BW ip
Method: as §1

c-Src [14] = assay: c-Src activation in left ventricle homogenates, CoPP and pNaKtide study; format: in vivo, mouse; conditions: PNx + CoPP 5 mg/kg BW ip, 4 weeks after PNx; p<0.01 vs PNx
Method: as §1

[15] = CoPP 5 μM, 24 h pre-treatment, TCB 100 nM 1 h
[16] = TCB 100 nM, 1 h, cardiac fibroblasts

C=CC1=C(C)c2cc3[n-]c(cc4nc(cc5[n-]c(cc1n2)c(C)c5CCC(=O)[O-])C(CCC(=O)[O-])=C4C)c(C)c3C=C.[Co+2].[H+].[H+] [CoPP, cobalt protoporphyrin]
HO-1 induction (HO-1 [1]; CoPP 5 μM, compared with TCB): considerably greater | TCB induced protein carbonylation (protein carbonylation [2]; [15]): attenuated | increase in heart weight/body weight ratio with PNx (PNx mice [3]): not | TCB induced activation of c-Src (c-Src [4]; [15]): attenuated | renal function as assessed by plasma cystatin C, creatinine, and BUN (PNx mice [5]): neither CoPP nor pNaKtide effected significant changes | TBARS (TBARS): consistent with the carbonylation data | PNx-induced protein carbonylation in LV homogenates (protein carbonylation [6]): reduced | TCB induced activation of ERK1/2 (ERK1/2 [7]; [15]): attenuated | AWT, anterior wall thickness [8]: 0.65 ± 0.01^$$ mm | CO, cardiac output [8]: 10.5 ± 0.3 mL/min | EDA, end diastolic area [8]: 27.2 ± 0.6 mm^2 | EDD, end diastolic dimension [8]: 4.4 ± 0.1 mm | EF, ejection fraction [8]: 60.0 ± 2.9% | ESA, end systolic area [8]: 19.0 ± 0.1 mm^2 | ESD, end systolic dimension [8]: 3.2 ± 0.1 mm | ET, ejection time [8]: 44 ± 1.0 ms | FS, fractional shortening [8]: 26.8 ± 1.7% | HR, heart rate [8]: 453 ± 11 beat/min | IVCT + IVRT, isovolumic contraction time + isovolumic relaxation time [8]: 21 ± 0.7^$$ msec | LVMI, left ventricle mass index [8]: 4.0 ± 0.1^$$ | PWT, posterior wall thickness [8]: 0.59 ± 0.02^$$ mm | PaD, pulmonary artery dimension [8]: 1.0 ± 0.02 mm | PaVTI, pulmonary artery Velocity time integral [8]: 29.9 ± 0.5^$ | PNx-induced increases in cardiac collagen-1 expression (collagen-1 [9]): reduced | collagen-1 expression at baseline (collagen-1 [10]; CoPP 5 μM, 24 h, no TCB, C57BL/6 mouse primary cardiac fibroblasts): did not significantly affect | TCB induced increases in collagen-1 expression (collagen-1 [10]; CoPP 5 μM, 24 h pre-treatment, TCB 100 nM 24 h, p<0.01 vs TCB alone): significantly ameliorated | PNx-induced cardiac fibrosis, Sirius Red/Fast Green staining [11]: significantly attenuated | activation of ERK1/2 in LV homogenates (ERK1/2 [12]): attenuated | HO-1 expression in the LV homogenates (HO-1 [13]): induced HO-1 expression most profoundly | activation of c-Src in LV homogenates (c-Src [14]): attenuated

C[C@]12CC[C@H](O)C[C@@]1(O)CC[C@@H]1[C@@H]2CC[C@]2(C)[C@@H](c3ccc(=O)oc3)CC[C@]12O [TCB, telecinobufagin]
HO-1 expression (HO-1 [1]; TCB 100 nM): increased | protein carbonylation (protein carbonylation [2]; [16]): induced activation | activation of c-Src (c-Src [4]; [16]): induced activation | activation of ERK1/2 (ERK1/2 [7]; [16]): induced activation | type I collagen (collagen-1) expression (collagen-1 [10]; TCB 100 nM, 24 h, vs control, C57BL/6 mouse primary cardiac fibroblasts, p<0.01): induced increases
